Test results reported in ChEMBL document CHEMBL3046247, “Anti-inflammatory and antioxidant activities of some extracts and pure natural products isolated from Rhus tripartitum (Ucria)” (Med Chem Res, 2010).
≈ marks a conversion by molar mass, not a printed value.

Legend:
Assay type in all cases: functional
[1] = Antioxidant activity assessed as inhibition of ABTS radical formation at 0.5 mg/ml measured at 10 min relative to trolox
[2] = Antioxidant activity assessed as inhibition of ABTS radical formation at 0.5 mg/ml measured at 5 min relative to trolox
[3] = Antioxidant activity assessed as inhibition of ABTS radical formation at 0.03 mg/ml measured at 20 min relative to trolox
[4] = Antioxidant activity assessed as inhibition of ABTS radical formation at 0.12 mg/ml measured at 5 min relative to trolox
[5] = Antioxidant activity assessed as inhibition of ABTS radical formation at 1 mg/ml measured at 10 min relative to trolox
[6] = Antioxidant activity assessed as inhibition of ABTS radical formation at 0.12 mg/ml measured at 10 min relative to trolox
[7] = Antioxidant activity assessed as inhibition of ABTS radical formation at 0.5 mg/ml measured at 15 min relative to trolox
[8] = Antioxidant activity assessed as trolox equivalent of ABTS radical scavenging activity at 20 min
[9] = Antioxidant activity assessed as inhibition of ABTS radical formation at 0.12 mg/ml measured at 20 min relative to trolox
[10] = Antioxidant activity assessed as inhibition of ABTS radical formation at 0.25 mg/ml measured at 15 min relative to trolox
[11] = test system: Radical scavenging activity; assay: Antioxidant activity assessed as inhibition of DPPH radical formation measured at 30 min relative to trolox
[12] = Antioxidant activity assessed as inhibition of ABTS radical formation at 0.5 mg/ml measured at 20 min relative to trolox
[13] = Antioxidant activity assessed as inhibition of ABTS radical formation at 0.25 mg/ml measured at 5 min relative to trolox
[14] = Antioxidant activity assessed as inhibition of ABTS radical formation at 1 mg/ml measured at 15 min relative to trolox
[15] = Antioxidant activity assessed as inhibition of ABTS radical formation at 0.03 mg/ml measured at 5 min relative to trolox
[16] = Antioxidant activity assessed as inhibition of ABTS radical formation at 0.12 mg/ml measured at 15 min relative to trolox
[17] = Antioxidant activity assessed as inhibition of ABTS radical formation at 0.03 mg/ml measured at 15 min relative to trolox
[18] = Antioxidant activity assessed as trolox equivalent of ABTS radical scavenging activity at 5 min
[19] = Antioxidant activity assessed as trolox equivalent of ABTS radical scavenging activity at 10 min
[20] = Antioxidant activity assessed as trolox equivalent of ABTS radical scavenging activity at 15 min
[21] = Antioxidant activity assessed as inhibition of ABTS radical formation at 0.25 mg/ml measured at 20 min relative to trolox
[22] = Antioxidant activity assessed as inhibition of ABTS radical formation at 0.25 mg/ml measured at 10 min relative to trolox
[23] = Antioxidant activity assessed as inhibition of ABTS radical formation at 0.06 mg/ml measured at 15 min relative to trolox
[24] = Antioxidant activity assessed as inhibition of ABTS radical formation at 1 mg/ml measured at 20 min relative to trolox
[25] = test system: Radical scavenging activity; assay: Antioxidant activity assessed as inhibition of DPPH radical formation at 1 mg/ml measured at 30 min relative to trolox
[26] = Antioxidant activity assessed as inhibition of ABTS radical formation at 0.06 mg/ml measured at 20 min relative to trolox
[27] = Antioxidant activity assessed as inhibition of ABTS radical formation at 0.06 mg/ml measured at 5 min relative to trolox
[28] = Antioxidant activity assessed as inhibition of ABTS radical formation at 0.03 mg/ml measured at 10 min relative to trolox
[29] = Antioxidant activity assessed as inhibition of ABTS radical formation at 1 mg/ml measured at 5 min relative to trolox
[30] = Antioxidant activity assessed as inhibition of ABTS radical formation at 0.06 mg/ml measured at 10 min relative to trolox
[31] = test system: Radical scavenging activity; assay: Antioxidant activity assessed as inhibition of DPPH radical formation at 0.2 to 1 mg/ml measured at 30 min relative to trolox
[32] = test system: Rattus norvegicus; assay: Anti-inflammatory activity in fasted Rattus norvegicus Wistar (rat) assessed as inhibition of carrageenan-induced paw edema at 1 mg/kg, ip administered 1 hr prior to carrageenan challenge measured at 1 hr relative to control; conditions: route intraperitoneal
[33] = test system: Rattus norvegicus; assay: Anti-inflammatory activity in fasted Rattus norvegicus Wistar (rat) assessed as inhibition of carrageenan-induced paw edema at 1 mg/kg, ip administered 1 hr prior to carrageenan challenge measured at 5 hr relative to control; conditions: route intraperitoneal
[34] = test system: Rattus norvegicus; assay: Anti-inflammatory activity in fasted Rattus norvegicus Wistar (rat) assessed as inhibition of carrageenan-induced paw edema at 1 mg/kg, ip administered 1 hr prior to carrageenan challenge measured at 3 hr relative to control; conditions: route intraperitoneal
[35] = test system: Rattus norvegicus; assay: Anti-inflammatory activity in fasted Rattus norvegicus Wistar (rat) assessed as inhibition of carrageenan-induced paw edema at 0.1 mg/kg, ip administered 1 hr prior to carrageenan challenge measured at 3 hr relative to control; conditions: route intraperitoneal
[36] = test system: Rattus norvegicus; assay: Anti-inflammatory activity in fasted Rattus norvegicus Wistar (rat) assessed as inhibition of carrageenan-induced paw edema at 0.5 mg/kg, ip administered 1 hr prior to carrageenan challenge measured at 1 hr relative to control; conditions: route intraperitoneal
[37] = test system: Rattus norvegicus; assay: Anti-inflammatory activity in fasted Rattus norvegicus Wistar (rat) assessed as inhibition of carrageenan-induced paw edema at 0.5 mg/kg, ip administered 1 hr prior to carrageenan challenge measured at 5 hr relative to control; conditions: route intraperitoneal
[38] = test system: Rattus norvegicus; assay: Anti-inflammatory activity in fasted Rattus norvegicus Wistar (rat) assessed as inhibition of carrageenan-induced paw edema at 0.1 mg/kg, ip administered 1 hr prior to carrageenan challenge measured at 5 hr relative to control; conditions: route intraperitoneal
[39] = test system: Rattus norvegicus; assay: Anti-inflammatory activity in fasted Rattus norvegicus Wistar (rat) assessed as inhibition of carrageenan-induced paw edema at 0.1 mg/kg, ip administered 1 hr prior to carrageenan challenge measured at 1 hr relative to control; conditions: route intraperitoneal
[40] = test system: Rattus norvegicus; assay: Anti-inflammatory activity in fasted Rattus norvegicus Wistar (rat) assessed as inhibition of carrageenan-induced paw edema at 0.5 mg/kg, ip administered 1 hr prior to carrageenan challenge measured at 3 hr relative to control; conditions: route intraperitoneal

SMILES | Imax [1] [%] | Imax [2] [%] | Imax [3] [%] | Imax [4] [%] | Imax [5] [%] | Imax [6] [%] | Imax [7] [%] | Activity [8] [mMequiv/mg] | Imax [9] [%] | Imax [10] [%] | Imax [12] [%] | Imax [13] [%] | Imax [14] [%] | Imax [15] [%] | Imax [16] [%] | Imax [17] [%] | Activity [18] [mMequiv/mg] | Activity [19] [mMequiv/mg] | Activity [20] [mMequiv/mg] | Imax [21] [%] | also measured
COc1cc([C@@H]2c3c(cc(OC)c(O)c3OC)C[C@H](CO)[C@H]2CO[C@@H]2O[C@H](CO)[C@@H](O)[C@H](O)[C@H]2O)cc(OC)c1O | 55.5 | 48.5 | 23.3 | 23.8 | 55.3 | 27.2 | 60.9 | 1.58 | 35.7 | 41.6 | 66.6 | 31.9 | 60.1 | 13.2 | 30.9 | 18.9 | 1.19 | 1.33 | 1.45 | 47.8 | IC50 [11]: 251.1 µg/mL (≈ 431 µM); Imax [22]: 37.8%; Imax [23]: 24.6%; Imax [24]: 65.5%; Imax [25]: 64.4%; Imax [26]: 29.9%; Imax [27]: 18%; Imax [28]: 15.3%; Imax [29]: 49.4%; Imax [30]: 20.8%
O=c1c(O)c(-c2cc(O)c(O)c(O)c2)oc2cc(O)cc(O)c12 [MYRICETIN] | 98.7 | 98.5 | 16.6 | 45.4 | 99.8 | 48.3 | 98.6 | 2.4 | 53.2 | 86.1 | 98.6 | 78.8 | 99.8 | 13.3 | 51.1 | 16 | 2.4 | 2.4 | 2.38 | 88.6 | IC50 [11]: 22 µg/mL (≈ 69.1 µM); Imax [22]: 83.2%; Imax [31]: 75.1%; Imax [23]: 31.6%; Imax [24]: 99.8%; Imax [26]: 32.8%; Imax [27]: 27.8%; Imax [28]: 14.5%; Imax [29]: 99.7%; Imax [30]: 29.8%
C[C@@H]1C[C@H]2[C@@H]3CCC4=CC(=O)C=C[C@]4(C)[C@@]3(F)[C@@H](O)C[C@]2(C)[C@@]1(O)C(=O)CO [DEXAMETHASONE] |  |  |  |  |  |  |  |  |  |  |  |  |  |  |  |  |  |  |  |  | inhibition in vivo at 1 mg/kg [32]: 23%; inhibition in vivo at 1 mg/kg [33]: 40%; inhibition in vivo at 1 mg/kg [34]: 30%
O=C1C[C@H](c2ccc(O)cc2)Oc2cc(Oc3c(O)cc4c(c3O)C(=O)C[C@H](c3ccc(O)cc3)O4)cc(O)c21 [MASAZINOFLAVANONE] | 60.6 | 59.5 | 18.3 | 32.8 | 73 | 35.9 | 62.5 | 1.2 | 45.7 | 49.8 | 64.4 | 40.9 | 75.5 | 13.3 | 43.2 | 16.3 | 1.12 | 1.15 | 1.18 | 52.3 | inhibition in vivo at 1 mg/kg [32]: 31%; inhibition in vivo at 0.1 mg/kg [35]: 8%; inhibition in vivo at 0.5 mg/kg [36]: 24%; inhibition in vivo at 0.5 mg/kg [37]: 14%; inhibition in vivo at 1 mg/kg [33]: 27%; inhibition in vivo at 0.1 mg/kg [38]: 10%; Imax [22]: 47.7%; inhibition in vivo at 0.1 mg/kg [39]: 7%; Imax [23]: 36.2%; Imax [24]: 77.7%; inhibition in vivo at 0.5 mg/kg [40]: 25%; inhibition in vivo at 1 mg/kg [34]: 31%; Imax [26]: 38.4%; Imax [27]: 26.7%; Imax [28]: 15.1%; Imax [29]: 72%; Imax [30]: 30.4%
